{"source": "paper PMC12006790", "about": "(Synthetic Biology, 2025)", "key": {"CelEdx16": {"biological_target": "T1, CelEdx16 (Clostridiaceae bacterium AN-C16-KBRB, UniProt E0A3Q5)", "T1 sequence (E0A3Q5 1-367)": "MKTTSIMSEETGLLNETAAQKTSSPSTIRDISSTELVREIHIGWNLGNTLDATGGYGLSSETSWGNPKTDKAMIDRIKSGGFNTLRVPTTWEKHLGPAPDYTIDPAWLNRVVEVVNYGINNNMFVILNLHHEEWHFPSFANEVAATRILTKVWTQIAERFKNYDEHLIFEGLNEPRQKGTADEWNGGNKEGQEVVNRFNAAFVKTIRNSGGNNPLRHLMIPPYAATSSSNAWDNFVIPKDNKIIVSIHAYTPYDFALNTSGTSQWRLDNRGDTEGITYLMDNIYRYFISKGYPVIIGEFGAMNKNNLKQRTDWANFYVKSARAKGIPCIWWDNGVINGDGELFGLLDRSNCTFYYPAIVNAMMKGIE", "test": "p-nitrophenol release, […] nm", "assay_type": "biochemical", "settings": "2 mM substrate, PBS pH 7.4, 40 °C, 12 h"}, "HjCel7A": {"biological_target": "T2, HjCel7A (Trichoderma reesei, UniProt P62694)", "T2 sequence (P62694 18-513)": "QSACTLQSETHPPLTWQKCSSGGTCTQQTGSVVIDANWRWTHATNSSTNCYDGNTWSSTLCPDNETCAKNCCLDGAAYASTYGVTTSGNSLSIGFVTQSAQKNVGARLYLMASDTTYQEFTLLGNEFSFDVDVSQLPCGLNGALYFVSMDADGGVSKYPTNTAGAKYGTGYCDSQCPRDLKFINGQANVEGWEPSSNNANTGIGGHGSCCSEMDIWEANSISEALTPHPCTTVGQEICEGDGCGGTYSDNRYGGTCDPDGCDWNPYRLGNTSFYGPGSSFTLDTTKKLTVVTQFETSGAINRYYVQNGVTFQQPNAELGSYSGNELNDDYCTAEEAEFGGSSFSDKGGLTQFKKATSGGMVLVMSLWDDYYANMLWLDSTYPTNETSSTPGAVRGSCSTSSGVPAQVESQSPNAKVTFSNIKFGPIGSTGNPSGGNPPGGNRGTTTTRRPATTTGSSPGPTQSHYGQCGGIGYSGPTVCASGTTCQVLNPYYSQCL", "test": "p-nitrophenol release, […] nm", "assay_type": "biochemical", "settings": "2 mM substrate, PBS pH 7.4, 40 °C, 12 h"}}}
{"smiles": "O=[N+]([O-])c1ccc(O[C@@H]2O[C@H](CO)[C@@H](O[C@@H]3O[C@H](CO)[C@@H](O)[C@H](O)[C@H]3O)[C@H](O)[C@H]2O)cc1", "note": "[p-nitrophenyl β-D-cellobioside]", "values": [{"measurement": "p-nitrophenol release, 405 nm; cell-free CB-biosensor", "setting": "CelEdx16", "result": "pNP assay detected significant signals for CelEdx16 and HjCel7A (CBHI)"}, {"measurement": "p-nitrophenol release, 405 nm; cell-free CB-biosensor", "setting": "HjCel7A", "result": "pNP assay detected significant signals for CelEdx16 and HjCel7A (CBHI)"}]}
